The results in this text go back to patent publication US9598396B2, “Tetrahydrophenanthridinones and tetrahydrocyclopentaquinolinones as PARP and tubulin polymerization inhibitors” (Janssen Pharmaceutica NV, priority 2008, dated 2017).

Molecules are shown by their SMILES.

For test [1], the system named is Human colon carcinoma HCT116 cells. In words: Detection of antiproliferative activity (Alamar Blue assay). Format: cell-based. Particulars: HCT-116, 96 h, 4-day incubation, read-out: Cellular assay HCT116 pIC50 (converted). How it is done:
Example C.4 Detection of Antiproliferative Activity
Human colon carcinoma HCT116 cells obtained from the ATCC were cultured in McCoy's 5A medium supplemented with 2 mM L-Glutamine, 50 μg/ml gentamicin and 10% heat inactivated fetal calf serum.
Reagents used in the Alamar Blue Assay
Resazurin was purchased from Aldrich (Prod. No. 199303). Potassium ferrocyanide, potassium ferricyanide, KH2PO4 and K2HPO4 were purchased from Sigma (Prod. Nos. P9387, P8131, P5655 and P8281, respectively).
Potassium Phosphate Buffer 0.1 M (PPB) was made as follows: 2.72 gram KH2PO4 and 13.86 gram K2HPO4 were dissolved in 500 ml milli-Q H2O, the pH was adjusted to pH 7.4 and the volume was brought to 1 liter with milli-Q H2O; the buffer was filter sterilised and stored at room temperature. Resazurin stock solution (PPB-A) was prepared fresh by dissolving 45 mg resazurin in 15 ml PBS. 30 mM potassium ferricyanide (PPB-B) was prepared by dissolving 0.987 gram potassium ferricyanide in 100 ml PPB. 30 mM potassium ferrocyanide (PPB-C) was prepared by dissolving 1.266 gram potassium ferrocyanide in 100 ml PPB.
Mixture of PPB-A, PPB-B and PPB-C was prepared by mixing equal volumes of the respective solutions. Resazurin work solution (herein termed “Alamar Blue” solution) was prepared by diluting said mixture 20× (vol/vol) in PPB and filter sterilising; the Alamar Blue solution could be kept at 4° C. for a maximum of 2 weeks.
Procedure of the Alamar Blue Assay
For experiments in 384 wells plates the cells were seeded at a density of 4.5×10^3 cells/ml in Falcon 384-well culture plates (Life Technologies, Merelbeke, Belgium), black with clear bottom, in 45 μl culture medium. Cells were allowed to adhere to plastic for 24 hours. The tested compound was pre-diluted (1/50 in culture medium) and 5 μl pre-diluted compound was added to the wells. Following 4-day incubation, 10 μl of the Alamar Blue solution was added to each well and the cells were further incubated for 4 hours (HCT116) or 24 hours (PC-3) at 37° C. The fluorescence intensity was measured for each well on a Fluorescence plate reader (Fluorskan, Labsystems, 540 nm excitation and 590 nm emission)
The antiproliferative activity was calculated as percentage of remaining viable cells in treated versus control (untreated cells) conditions. Within an experiment, the result for each experimental condition is the mean of 3 replicate wells. When appropriate, the experiments were repeated to establish full concentration-response curves. […] Herein the effects of tested compounds are expressed as pIC50 (the negative log value of the IC50 value) (see Table 3).
A general note: The colour change of resazurin is a common sign of viable cells or microbes.

Test [2] deals with human prostate cancer PC3 cells. In words: Eb1 Comet (microtubule disruption) assay. Format: cell-based. The note with it: 1 hour treatment, LAC = concentration where Eb1 foci absent in at least 50% of treated cells. An excerpt:
Example C.6 Eb1 Comet (Microtubule Disruption) Assay
The Eb1 Comet assay relies on the detection of the Eb1 protein at the plus end of polymerizing microtubules (Mimori-Kiyosue, 2000) using indirect immunofluorescence. Disruption of microtubule dynamics through de-polymerization or stabilization results in a de-localization of Eb1 from the growing microtubule ends and this is visualized by the disappearance of Eb1 containing cytoplasmic foci.
Briefly, human prostate cancer PC3 cells obtained from the American Type Culture Collection were grown in 96-well plates (Greiner, cat. no. 655090) in HAM's F12 medium as recommended by the provider (ATCC). The cells were treated for 1 hour at 37° C. with compounds dissolved in DMSO (0.6% final DMSO concentration). The culture medium was then removed by aspiration and the cells were fixed by adding cold methanol (−20 C). After a 15 minutes incubation at −20° C., the cells were washed twice with DPBS (Gibco) containing 0.5% Triton X-100. Mouse Eb1 antibody (BD Transduction Laboratories, cat. no. 610534) was added to the cells (1/250 dilution in DPBS containing 1% BSA) and incubated overnight at room temperature. The antibody was subsequently removed and the cells washed twice with DPBS, 0.5% Triton X-100. Secondary goat anti-mouse antibody conjugated to Alexa 488 fluorescent dye (Molecular Probes) was added at a 1/500 dilution in DPBS, 1% BSA and incubated for 1 hour at 37° C. The cells were washed twice with DPBS, 0.5% Triton X-100 and then DPBS containing 0.5% Triton X-100 and 1/5000 Hoechst 33342 (Molecular Probes) was added. Microscopy based Eb1 foci visualization was carried out using an IN Cell Analyser 1000 (Amersham Biosciences) using a 20× objective. Compound dependent microtubule disruption was visually determined by the disappearance in Eb1 foci. The lowest active concentration (LAC) was determined as the concentration where Eb1 foci were absent in at least 50% of the treated cells. Herein the effects of tested compounds are expressed as pLAC (the negative log value of the LAC value) (see Table 3).

Regarding `CC(C#N)(Cc1cccc(Cl)c1)c1ccc2c3c(c(=O)[nH]c2c1)CCCC3` (centres unmarked) [Co. No. 8], the IC50 in test [1] was 155 nM. On the same count and under the same terms, under `CC(C#N)(Cc1ccccc1)c1ccc2c3c(c(=O)[nH]c2c1)CCCC3` (centres unmarked) [Co. No. 1] stands 355 nM; under `CC(C#N)(Cc1cccc(C#N)c1)c1ccc2c3c(c(=O)[nH]c2c1)CCCC3` (centres unmarked) [Co. No. 4], 148 nM. In the case of `CC(C#N)(Cc1cccc(C#N)n1)c1ccc2c3c(c(=O)[nH]c2c1)CCCC3` (centres unmarked) [Co. No. 7], the IC50 in test [1] is 58.9 nM. Also, the “Cellular assay Eb1 pLAC” value in test [2] was 7.5. The like results for `CC(C#N)(Cc1cccc(F)c1)c1ccc2c3c(c(=O)[nH]c2c1)CCCC3` (centres unmarked) [Co. No. 5] were, in that order, 282 nM and 7. Turning to `CC(C#N)(CCOc1ccc(C#N)cc1)c1ccc2c3c(c(=O)[nH]c2c1)CCCC3` (centres unmarked) [Co. No. 17], in test [1], the IC50 is 204 nM.
